Assays:
A375 cells = experiment: Clonogenic assay; format: cell-based, human; settings: Homo sapiens, A-375, read-out: lethal concentration to kill the cell population by 50% (VDA IC50)
Description: The clonogenic assay was conducted to confirm that cancer cells treated by plasmon-driven MJH are indeed death upon NIR-light activation (FIG. 18). Three molecules were analyzed: the most VDA active BL-204, medium active BL-141-2 and low active Cy7-amine. […] This was accomplished by incubating the MJH molecules with the A375 cells for 50 min and immediately activate the plasmon-driven MJH using 730 nm NIR-light at 80 mW/cm^2 for 10 min. This is considered a short contact time between the MJH and the A375 cells.
Clonogenic assay. A375 cells were seeded in 35 mm cell culture dishes at predetermined densities to allow for an approximately equal number of resultant colonies. The next day, cells were treated with Cy7.5-amine at variable concentration and with or without 730 nm light at 80 mWcm^−2 for 10 min. The cells were incubated with Cy7.5-amine for 50 min before the illumination, the media was replaced with fresh media after the illumination and cells were cultured for 6 days to allow for colony formation. Cells were then washed once with PBS and fixed-stained in a 0.5% (w/v) crystal violet in methanol/water solution (1:1) during 10 min. The excess of crystal violet was washed off with water, the plates were dried at room temperature and then the colonies were counted using ImageJ software version 1.52a, and the survival fraction was determined. All treatments were in triplicate.

[1] = system: human melanoma A375 cells; experiment: Cell permeabilization to DAPI, flow cytometry analysis; format: cell-based; settings: for permeabilization of the cells to DAPI: 730 nm light at 80 mW/cm^2 for 10 min; for IC50: Homo sapiens, A-375, 10 min, 730 nm LED light at 80 mW/cm^2 for 10 min, DAPI positive cells, read-out: VDA IC50 (effective concentration needed to permeabilize cells by 50%)
Description: The activity of plasmon-driven MJHs to open cell membranes by VDA upon NIR light-activation was evaluated in human melanoma A375 cells. When the cell membranes were open by VDA, DAPI enters immediately into the cells and stain the nucleus, and flow cytometry analysis was used to quantify the percentage of DAPI positive cells at variable concentrations of MJH. The flow cytometry analysis is conducted immediately after the cells were treated with 730 nm LED light at 80 mW/cm^2 for 10 min. Typically, it took ˜30 s to start cell counting and observe that DAPI already had entered into the cell membrane-compromised cells but not in the controls without VDA action. This is indicative of a rapid necrotic cell death and cell membrane permeabilization to DAPI by VDA action. The effective concentration needed to permeabilize cells by 50% (VDA IC50) was estimated for each molecule.
The flow cytometry data was analyzed using FlowJo software version 10.5.3. Then, a wide polygonal gate was drawn as shown in FIG. 33A since we were interested in detecting any cell death after treatment, we were not only interested in measuring healthy cell populations. Sometimes, we observed that the death cell population upon treatment shifted outside the gate if a narrow gate was used. Then, the singlets were selected and the DAPI fluorescence intensity was plotted versus the SSC-A and the gate for DAPI positive cells was drawn as shown in FIG. 33C and the analysis was applied to all samples in the group. In FIG. 33D, a DAPI positive population is observed in the same analysis group. This analysis was applied to calculate the percentage of DAPI positive cells.
Cell Permeabilization and flow cytometry analysis. A375 cells were cultured as described before. One day before the treatment, cells were inoculated at 5 million cells per dish (10 cm polystyrene tissue culture dish). The cells were harvested using 0.05% trypsin-EDTA (Gibco, 25-300-054), then the cells were counted and were adjusted to a cell density of 2×10^5 cells/mL in DMEM media with L-glutamine, 4.5 g/L glucose, and sodium pyruvate (Corning Inc. 10013CV) and supplemented with 10% FBS (Corning, 35010CV), 2×MEM vitamin solution (Gibco, 11120052), 1×MEM non-essential amino acid solution (Gibco, 11140050) and penicillin/streptomycin. 1 mL of this cell suspension containing 2×10^5 cells was used in each treatment. In a 1.5 mL Eppendorf tube, […] containing 2 mM Cy7.5-amine (or other cyanine molecule or other concentration) in DMSO (Fisher, 99.7%) was placed in the bottom of the tube, then 1 mL of the cell suspension was added into the tube to get final concentration of 2 μM of Cy7.5-amine containing 0.1% DMSO and 2×10^5 cells. The mixture was then incubated at 37° C. and 5% CO2 for 30 min. Then, 1 mM DAPI was added into the cell suspension. Then, the cells suspension was transferred to a […] tissue culture dish and immediately the cells were treated under the light beam of NIR light of 730 nm at 80 mW/cm^2 (or adjusted powers down to 20 mW/cm^2) for 10 min (or adjusted illumination times down to 30 s) using LED light source (PRIZMATIX, UHP-F-730, Israel) which covered the entire dish. While the cells were treated, the dish was placed on top of an aluminum block painted black, so that the excess NR light and that was not reflected back into the cell suspension while the aluminum block actED as a heat-sink, maintaining a constant temperature in the dish during the irradiation. The instrument for flow cytometry analysis (SONY, MA900 Multi-Application Cell Sorter) was already set up and calibrated by the time the light treatment was finished. Therefore, as soon as the 10-min light treatment was completed, the cell suspension was rapidly transferred from the 35 mm dish to a flow cytometry tube and the cells were analyzed for DAPI permeabilization and Cy7.5-amine binding. It took ˜30 s to load the sample and to start the analysis. […]

SMILES | IC50 (A375 cells) | IC50 [1] | further results
CN1/C(=C\C=C2C=C(/C=C/C3=[N+](CCCCCC(=O)NCCCCCCN)c4ccccc4C3(C)C)CCC\2)C(C)(C)c2ccccc21 [Cy7-amine] | 175 nM | – | permeabilization to DAPI staining, percentage of cells ([1]; 1 μM, 730 nm LED at 80 mW/cm^2 for 10 min): 0.8%; effect of 680 nm excitation on opening cell membranes ([1]; 680 nm LED, 80 mWcm^−2 for 10 min): improves the MJH effect for opening cell membranes
CC1(C)C(/C=C/C=C/C=C/C=C2\N(CCCCS(=O)(=O)O)c3ccc4ccccc4c3C2(C)C)=[N+](CCCCS(=O)(=O)[O-])c2ccc3ccccc3c21 [ICG, indocynine green] | – | > 8000 nM | permeabilization of the cells to DAPI ([1]; 32 μM): 2%; permeabilization of the cells to DAPI ([1]; 400 μM): 14%
CN(C)CC[N+]1=C(/C=C/C2=CC(=C/C=C3/N(C)c4ccc5ccccc5c4C3(C)C)/CCC2)C(C)(C)c2c1ccc1ccccc21 [BL-204, 3-(2-(dimethylamino)ethyl)-1,1-dimethyl-2-((E)-2-((E)-3-((E)-2-(1,1,3-trimethyl-1,3-dihydro-2H-benzo[e]indol-2-ylidene)ethylidene)cyclohex-1-en-1-yl)vinyl)-1H-benzo[e]indol-3-ium] | 45 nM | 120 nM | –
CN(C)CCCCCC[N+]1=C(/C=C/C2=CC(=C/C=C3/N(C)c4ccc5ccccc5c4C3(C)C)/CCC2)C(C)(C)c2c1ccc1ccccc21 [BL-141-2, 3-(6-(dimethylamino)hexyl)-1,1-dimethyl-2-((E)-2-((E)-3-((E)-2-(1,1,3-trimethyl-1,3-dihydro-2H-benzo[e]indol-2-ylidene)ethylidene)cyclohex-1-en-1-yl)vinyl)-1H-benzo[e]indol-3-ium] | 65 nM | – | –
CN1/C(=C/C=C2C=C(/C=C/c3ccc4ccccc4[n+]3C)CCC/2)C=Cc2ccccc21 [BL-206] | – | > 8000 nM | –

Source: patent US20250170098A1, “MOLECULAR JACKHAMMER FOR MECHANICAL DESTRUCTION OF CELLULAR STRUCTURE” (William Marsh Rice University, priority 2022, published 2025)
